In patent US20190282498A1, “FREEZE-DRIED PROBIOTIC FOODSTUFFS” (IMAGILIN TECHNOLOGY, LLC, priority 2018, published 2019):

Test system: E. coli
Assay: Survival of E. coli with amoxicillin (comparison, data not shown)
Format: cell-based
Details: 500 μg/ml of amoxicillin
Procedure: In order to determine whether freeze-drying interfered with this antibiotic compatibility, Pediococcus probiotic freeze-dried products were exposed amoxicillin at 10 μg/ml, 50 μg/ml, 100 μg/ml, and 500 μg/ml, and incubated at 45° C. for […] to see if any survival of Pediococcus acidilactici NRRL B-50517. […] For comparison, E. coli had 0% survival at 500 μg/ml of amoxicillin (data not shown).

With `CC1(C)S[C@@H]2[C@H](NC(=O)[C@H](N)c3ccc(O)cc3)C(=O)N2[C@H]1C(=O)O` [amoxicillin] the “survival of E. coli” value was 0%.
